Test results taken from patent publication US6977296B2, “HUMAN CERVICAL CANCER SUPPRESSOR PROTEIN, POLYNUCLEOTIDE ENCODING THE PROTEIN, CELL TRANSFORMED WITH THE POLYNUCLEOTIDE AND METHOD FOR SUPPRESSING PROLIFERATION OF CANCER CELL USING THE EXPRESSION VECTOR” (priority 2000, dated 2005).

System: HeLa cervical cancer cells
Test: Adriamycin or UVC-triggered apoptosis: cell cycle kinetic analysis (PI, FACS)
Format: cell-based, human
Experimental: To examine whether a drug or UV light triggers apoptosis of the cells transfected with HCCS-1 gene, the cell cycle kinetic analysis was conducted as described by Hedley, D. W.(in Flow Cytometry, DNA Analysis from Paraffin-embedded Blocks (eds Darzynkiewicz, Z. & Crissman, H. A.) 139 (Academic Press, San Diego, 1990)).
HeLa cells transfected with HCCS-1 gene obtained in Step 2 of Example 4 and parental wild-type cells were cultured until mid-log phase and incubated in Waymouth MB 752/1 medium containing 0.5% bovine calf serum for 36 hours to arrest the cell growth at G0/G1 phase. The cells were treated with adriamycin (0.1 and 2 μg/ml, respectively) or UVC (50 J/m^2) and then the cells were cultured in Waymouth MB 752/1 medium containing 0.5% bovine calf to resume the cell growth. After 24 hours, HeLa cells were harvested, treated with trypsin, and fixed in 70% ethanol.
50 μg/ml of PI staining solution (Sigma) and 100 units/ml of RNase A (Boerhinger Mannheim) were added to 2×10^6 of the fixed cells. After incubation for 1 hour, the cellular DNA content was determined by fluorescence analysis at 488 nm using a FACS Caliber (Becton Dickinson). A minimum of 1×10^4 cells per sample was analyzed with Modfit 5.2 software.

In the case of `COc1cccc2c1C(=O)c1c(O)c3c(c(O)c1C2=O)C[C@@](O)(C(=O)CO)C[C@@H]3O[C@H]1C[C@H](N)[C@H](O)[C@H](C)O1` [adriamycin], the “differences in cell populations with respect to cell cycle progression between wild-type and HCCS-1-transfected HeLa cells” value (adriamycin 0.1 and 2 μg/ml, 24 hours) is reported as “no significant differences” and the “cells in apoptotic sub G0/G1-phase” value (wild-type HeLa cells, 24 hours after adriamycin 0.1 and 2 μg/ml) is reported as “few cells remained in apoptotic sub G0/G1-phase”.
